Measured values as given in ChEMBL document CHEMBL3832066, “DailyMed|setid=891194e8-7083-4438-8d27-c72f2372e40f | ISOSORBIDE MONONITRATE - isosorbide mononitrate tablet, extended release|Mckesson Contract Packaging”.
“And” between values parts separate entries of the source, which are not always exact repeats. Equal entries are not always repeated.

Legend:
Type in all cases: ADME, organism-based
[1] = (§1) Pharmacokinetic parameters for Isosorbide mononitrate after single oral dose administration of 60 mg Isosorbide mononitrate solution or table to subjects.; parameters: dose 60 mg, route oral; conditions: human, in vivo, dosed compound id 10, dosed compound name ISOSORBIDE MONONITRATE, regimen Single dose, tissue Plasma
Homo sapiens [2] = test: as §1; parameters: dose 60 mg, route oral; conditions: in vivo, po, dosed compound id 10, dosed compound name ISOSORBIDE MONONITRATE, regimen Single dose, tissue Plasma
[3] = (§2) Pharmacokinetic parameters for Isosorbide mononitrate after multiple oral dose administrations of 60 and 120 mg Isosorbide mononitrate tablets to subjects; parameters: dose 120 mg, dose 60 mg, route oral; conditions: human, in vivo; dose 60 mg, dosed compound id 10, dosed compound name ISOSORBIDE MONONITRATE, regimen Multiple dose, route oral, tissue Plasma
Homo sapiens [4] = test: as §2; parameters: dose 120 mg, dose 60 mg, route oral; conditions: in vivo, po, dosed compound id 10, dosed compound name ISOSORBIDE MONONITRATE, regimen Multiple dose, tissue Plasma

O=[N+]([O-])O[C@@H]1CO[C@H]2[C@@H]1OC[C@@H]2O [ISOSORBIDE MONONITRATE]
AUC ([1]; po, 60 mg): 5990 to 7450 ng·h/mL
CL/F ([1]; dose 60 mg, route oral): 151 to 187 mL/min
half-life ([1]; dose 60 mg, route oral): 6.3 to 6.6 h
CL/F (Homo sapiens [2]; dose 60 mg): 120 to 122 mL/min
t1/2 (Homo sapiens [2]; dose 60 mg): 4.8 to 5.1 h
AUC (Homo sapiens [2]): 8190 to 8310 ng·h/mL
Cmax (Homo sapiens [2]): 424 to 541 ng/mL and 1240 to 1530 ng/mL
CL/F [3]: 132 to 151 mL/min
Tmax [3]: 2.9 to 4.2 h
half-life [3]: 6.2 to 6.3 h
CL/F (Homo sapiens [4]; dose 120 mg): 119 to 140 mL/min
Tmax (Homo sapiens [4]; dose 120 mg): 3.1 to 3.2 h
AUC (Homo sapiens [4]): 6620 to 7560 ng·h/mL and 14200 to 16800 ng·h/mL
Cmax (Homo sapiens [4]): 557 to 572 ng/mL and 1150 to 1180 ng/mL
